These are literature values, as cited in article PMC10705946, “^225Ac-iPSMA-RGD for Alpha-Therapy Dual Targeting of Stromal/Tumor Cell PSMA and Integrins” (International Journal of Molecular Sciences, 2023).

Ends that are not written are not given here.

This data set relates to glioma cells. The arrangement: method as in PMID 29611298. The note with it: after 24 h of treatment, cells overexpressing the substance P receptor; cited from earlier work.

On to “^225Ac-labeled substance P: ^225Ac-labeled ligand of the neurokinin-1 receptor (RPKPQQFFGLM; ends and bridges not checked; also: 225Ac radiolabel, attachment not given here; UniProt P20366 58-68, looked up)”, for which the “Increase of apoptotic cells” value is given as 25%.
